According to ChEMBL document CHEMBL3808281, “Investigation of the Structure-Activity Relationships of Aza-A-Ring Indenoisoquinoline Topoisomerase I Poisons” (J Med Chem, 2016):

Tests used:
[1] = Cytotoxicity against human NCI60 cells assessed as cell growth at 10 uM after 48 hrs; assay type: functional; settings: NCI60, 48 h, read-out: Activity
[2] = Antiproliferative activity against human HOP62 cells after 48 hrs; assay type: functional; settings: HOP-62, 48 h
[3] = Antiproliferative activity against human SF539 cells after 48 hrs; assay type: functional; settings: SF-539, 48 h
SN12C = test: Antiproliferative activity against human SN12C cells after 48 hrs; assay type: functional
[4] = Antiproliferative activity against human HCT116 cells after 48 hrs; assay type: functional; settings: HCT-116, 48 h
[5] = Antiproliferative activity against human DU145 cells after 48 hrs; assay type: functional; settings: DU-145, 48 h
[6] = Antiproliferative activity against human UACC62 cells after 48 hrs; assay type: functional; settings: UACC-62, 48 h
MCF7 = test: Antiproliferative activity against human MCF7 cells after 48 hrs; assay type: functional; settings: MCF7, 48 h
[7] = Antiproliferative activity against human OVCAR3 cells after 48 hrs; assay type: functional; settings: OVCAR-3, 48 h
[8] = molecular target: T1, DNA topoisomerase 1 (Homo sapiens) (UniProt P11387); test: Activity at recombinant top1 (unknown origin) assessed as DNA cleavage using 3'-[32P]-labeled 117-bp DNA as substrate at 0.1 to 100 uM after 20 mins by SDS-PAGE
T1 sequence (whole entry): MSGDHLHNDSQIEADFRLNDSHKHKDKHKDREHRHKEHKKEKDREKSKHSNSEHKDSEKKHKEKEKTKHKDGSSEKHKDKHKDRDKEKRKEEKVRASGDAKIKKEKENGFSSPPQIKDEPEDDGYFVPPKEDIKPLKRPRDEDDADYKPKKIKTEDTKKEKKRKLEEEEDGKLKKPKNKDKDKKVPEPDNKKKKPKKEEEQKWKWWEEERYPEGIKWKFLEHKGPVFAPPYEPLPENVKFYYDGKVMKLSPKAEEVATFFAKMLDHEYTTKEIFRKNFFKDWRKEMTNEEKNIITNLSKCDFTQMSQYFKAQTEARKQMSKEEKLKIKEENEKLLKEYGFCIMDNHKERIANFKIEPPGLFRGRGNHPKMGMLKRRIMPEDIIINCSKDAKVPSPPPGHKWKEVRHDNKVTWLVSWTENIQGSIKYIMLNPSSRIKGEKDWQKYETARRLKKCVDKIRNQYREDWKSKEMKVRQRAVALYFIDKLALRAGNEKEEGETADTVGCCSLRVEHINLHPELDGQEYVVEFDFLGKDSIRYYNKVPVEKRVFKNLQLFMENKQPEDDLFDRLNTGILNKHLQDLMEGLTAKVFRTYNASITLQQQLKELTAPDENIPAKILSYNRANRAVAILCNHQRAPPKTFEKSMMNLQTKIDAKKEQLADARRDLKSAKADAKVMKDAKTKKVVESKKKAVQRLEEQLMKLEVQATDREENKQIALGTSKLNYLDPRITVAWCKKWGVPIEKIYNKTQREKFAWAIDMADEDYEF

[9] = molecular target: T2, Tyrosyl-DNA phosphodiesterase 2 (Homo sapiens, UniProt O95551)
T2 sequence (O95551 whole entry): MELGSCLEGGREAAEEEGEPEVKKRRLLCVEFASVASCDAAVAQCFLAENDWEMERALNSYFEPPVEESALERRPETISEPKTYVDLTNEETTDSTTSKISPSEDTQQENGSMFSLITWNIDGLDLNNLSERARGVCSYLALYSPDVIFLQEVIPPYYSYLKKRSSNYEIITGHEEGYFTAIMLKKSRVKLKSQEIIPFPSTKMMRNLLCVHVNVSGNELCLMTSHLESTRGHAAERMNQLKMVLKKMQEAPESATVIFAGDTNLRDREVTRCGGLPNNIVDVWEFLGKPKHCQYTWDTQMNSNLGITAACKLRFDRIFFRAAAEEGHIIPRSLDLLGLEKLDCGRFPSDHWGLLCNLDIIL
Description: Inhibition of human recombinant TDP2 using 19-mer single stranded DNA containing 5'-phosphotyrosine as substrate after 15 mins by PAGE

[10] = Antiproliferative activity against human NCI60 cells after 48 hrs; assay type: functional; settings: NCI60, 48 h
[11] = molecular target: Tyrosyl-DNA phosphodiesterase 1 (Homo sapiens, UniProt Q9NUW8)
Sequence of Tyrosyl-DNA phosphodiesterase 1 (Q9NUW8 whole entry): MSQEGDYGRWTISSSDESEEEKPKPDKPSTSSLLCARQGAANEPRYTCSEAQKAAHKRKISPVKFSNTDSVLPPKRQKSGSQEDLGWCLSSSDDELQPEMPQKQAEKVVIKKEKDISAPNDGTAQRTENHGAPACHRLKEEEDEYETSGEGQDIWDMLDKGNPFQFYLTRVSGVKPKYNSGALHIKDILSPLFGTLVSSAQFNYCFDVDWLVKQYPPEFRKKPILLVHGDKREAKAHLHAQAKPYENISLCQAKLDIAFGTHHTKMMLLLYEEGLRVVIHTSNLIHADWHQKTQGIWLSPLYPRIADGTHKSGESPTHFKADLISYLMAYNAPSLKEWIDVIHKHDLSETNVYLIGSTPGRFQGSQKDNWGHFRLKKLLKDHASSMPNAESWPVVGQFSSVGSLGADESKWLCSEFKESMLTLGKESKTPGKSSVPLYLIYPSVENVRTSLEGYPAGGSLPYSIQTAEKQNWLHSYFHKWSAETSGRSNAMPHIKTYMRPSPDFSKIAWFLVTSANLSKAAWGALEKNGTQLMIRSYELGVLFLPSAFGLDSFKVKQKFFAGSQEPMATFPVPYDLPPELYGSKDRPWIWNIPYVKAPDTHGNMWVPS
Description: Inhibition of recombinant TDP1 (unknown origin) using single stranded 5'-[32P]-labeled DNA containing 3'-phosphotyrosine as substrate after 15 mins by PAGE

## CN(C)CCCn1c2c(c3cnccc3c1=O)C(=O)c1ccccc1-2
[1]
  growth at 10 µM: -8.83%
[2]
  GI50: 0.398 µM
[3]
  GI50: 0.38 µM
SN12C
  GI50: 0.288 µM
[4]
  GI50: 0.245 µM
[5]
  GI50: 0.49 µM
[6]
  GI50: 0.309 µM
MCF7
  GI50: 0.245 µM
[7]
  GI50: 1.1 µM
[8]
  Activity: 50%

## CC[C@@]1(O)C(=O)OCc2c1cc1n(c2=O)Cc2cc3ccccc3nc2-1 [CAMPTOTHECIN]
[7]
  GI50: 0.22 µM

## O=C1c2ccccc2-c2c1c1cccnc1c(=O)n2C[C@H](O)CO
[1]
  growth at 10 µM: 61.7%
[8]
  Activity: 20%

## O=C1c2ccccc2-c2c1c1ncccc1c(=O)n2CCCN1CCOCC1
[1]
  growth at 10 µM: 87.9%
[8]
  Activity: 50%

## NCCCn1c2c(c3ccncc3c1=O)C(=O)c1ccccc1-2
[9]
  IC50: 111 µM
[8]
  Activity: 0%

## CN(C)CCCn1c2c(c3ccccc3c1=O)C(=O)c1ccccc1-2
[8]
  Activity: 75%

## O=C1c2ccccc2-c2c1c1ncccc1c(=O)n2CCCn1ccnc1
[1]
  growth at 10 µM: 83.6%
[8]
  Activity: 50%

## O=C1c2ccccc2-c2c1c1ccccc1c(=O)n2CCCn1ccnc1
[10]
  GI50: 1.86 µM
[8]
  Activity: 100%

## O=C1c2ccccc2-c2c1c1ccccc1c(=O)n2CCCN1CCOCC1
[10]
  GI50: 15.1 µM
[8]
  Activity: 50%

## O=C1c2ccccc2-c2c1c1ccccc1c(=O)n2C[C@H](O)CO
[10]
  GI50: 8.71 µM
[8]
  Activity: 75%

## NCCCn1c2c(c3ncccc3c1=O)C(=O)c1ccccc1-2
[8]
  Activity: 50%

## O=C1c2ccccc2-c2c1c1cnccc1c(=O)n2C[C@H](O)CO
[1]
  growth at 10 µM: 85.5%
[8]
  Activity: 20%

## CN(C)CCCn1c2c(c3ccncc3c1=O)C(=O)c1ccccc1-2
[2]
  GI50: 0.871 µM
SN12C
  GI50: 0.955 µM
[4]
  GI50: 0.38 µM
[5]
  GI50: 0.977 µM
[6]
  GI50: 1.23 µM
MCF7
  GI50: 0.331 µM
[7]
  GI50: 2 µM

## O=C1c2ccccc2-c2c1c1ncccc1c(=O)n2C[C@H](O)CO
[8]
  Activity: 20%

## O=C1c2ccccc2-c2c1c1cnccc1c(=O)n2CCCn1ccnc1
[1]
  growth at 10 µM: 67.8%
[8]
  Activity: 50%

## O=C1c2ccccc2-c2c1c1ccncc1c(=O)n2CCCn1ccnc1
[1]
  growth at 10 µM: 47.5%

## O=C1c2ccccc2-c2c1c1cccnc1c(=O)n2CCCN1CCOCC1
[1]
  growth at 10 µM: 42.9%
[8]
  Activity: 75%

## NCCCn1c2c(c3ccccc3c1=O)C(=O)c1ccccc1-2
[10]
  GI50: 0.32 µM
[8]
  Activity: 75%

## O=C1c2ccccc2-c2c1c1ccncc1c(=O)n2C[C@H](O)CO
[9]
  IC50: > 111 µM
[11]
  IC50: > 111 µM
[8]
  Activity: 50%

## NCCCn1c2c(c3cccnc3c1=O)C(=O)c1ccccc1-2
[1]
  growth at 10 µM: 12.2%
[2]
  GI50: 1.45 µM
[3]
  GI50: 1.38 µM
SN12C
  GI50: 1.12 µM
[4]
  GI50: 0.537 µM
[5]
  GI50: 1.91 µM
[6]
  GI50: 1.35 µM
MCF7
  GI50: 0.417 µM
[7]
  GI50: 2.29 µM
[8]
  Activity: 50%

## CN(C)CCCn1c2c(c3ncccc3c1=O)C(=O)c1ccccc1-2
[1]
  growth at 10 µM: 44.4%
[8]
  Activity: 50%

## O=C1c2ccccc2-c2c1c1cccnc1c(=O)n2CCCn1ccnc1
[1]
  growth at 10 µM: 49.6%
[8]
  Activity: 75%

## O=C1c2ccccc2-c2c1c1cnccc1c(=O)n2CCCN1CCOCC1
[8]
  Activity: 75%

## CN(C)CCCn1c2c(c3cccnc3c1=O)C(=O)c1ccccc1-2
[1]
  growth at 10 µM: 5.45%
[2]
  GI50: 1.26 µM
[3]
  GI50: 0.851 µM
SN12C
  GI50: 1.12 µM
[4]
  GI50: 0.437 µM
[5]
  GI50: 1.91 µM
[11]
  IC50: 111 µM
[6]
  GI50: 1.29 µM
MCF7
  GI50: 0.363 µM
[7]
  GI50: 2.4 µM
[8]
  Activity: 75%

## NCCCn1c2c(c3cnccc3c1=O)C(=O)c1ccccc1-2
[9]
  IC50: 111 µM
[8]
  Activity: 50%
